For test [1], the target named is T1, StAR START domain (GSV-StAR) (Mus musculus, UniProt P51557).
T1 sequence (P51557 66-274 limits assumed): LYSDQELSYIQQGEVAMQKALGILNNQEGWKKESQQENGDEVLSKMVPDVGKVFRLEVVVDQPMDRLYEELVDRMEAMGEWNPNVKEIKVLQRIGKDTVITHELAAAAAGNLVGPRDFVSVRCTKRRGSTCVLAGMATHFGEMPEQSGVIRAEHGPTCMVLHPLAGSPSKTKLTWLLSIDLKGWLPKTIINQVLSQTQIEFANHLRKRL
Nature of the test: IgG-bead immunoisolation from yeast lysate, LC-MS of bound metabolites. Particulars: endogenous yeast metabolite, enriched over GV control. Type of test: binding.

For test [2], the target named is T2, PCTP START domain (GSV-PCTP) (Homo sapiens, UniProt Q9UKL6).
T2 sequence (Q9UKL6 1-212 limits assumed): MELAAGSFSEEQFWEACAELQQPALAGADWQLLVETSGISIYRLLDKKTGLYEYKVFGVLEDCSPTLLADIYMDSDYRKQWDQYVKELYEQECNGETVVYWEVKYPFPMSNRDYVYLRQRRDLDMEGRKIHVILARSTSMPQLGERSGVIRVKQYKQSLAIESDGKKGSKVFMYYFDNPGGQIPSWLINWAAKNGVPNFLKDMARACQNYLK
The description is as above. The test is classed as binding. Particulars: endogenous yeast metabolite, enriched over GV control.

The results in this text go back to article PMC4169639 (BMC Biology, 2014).

The structures appear in SMILES notation.

For `CC(C)=CCC/C(C)=C/CC/C(C)=C/CC/C=C(\C)CC/C=C(\C)CCC=C(C)C` [squalene], the “IgG-bead immunoisolation from yeast lysate, LC-MS of bound metabolites” value (“IgG-bead immunoisolation … of bound metabolites” for short) in test [1] is “lanosterol and squalene, were also significantly enriched for the START domain from StAR”; in test [2], “several metabolites that were shared with StAR (e.g. lanosterol, squalene”.
For the compound `CCCCC/C=C\C/C=C\CCCCCCCC(N)=O` [linoleamide], the “IgG-bead immunoisolation … of bound metabolites” value in test [2] is “lipids including sphinganine, sphingosine, behenic acid and linoleamide”.
`CC(C)=CCC[C@@H](C)[C@H]1CC[C@@]2(C)C3=C(CC[C@]12C)[C@@]1(C)CC[C@H](O)C(C)(C)[C@@H]1CC3` [lanosterol]: the “IgG-bead immunoisolation … of bound metabolites” value in test [1] was “lanosterol and squalene, were also significantly enriched for the START domain from StAR”; in test [2] it was “several metabolites that were shared with StAR (e.g. lanosterol, squalene”.
